Laboratory results published in patent US20230278972A1, “SUBSTITUTED HALOALKYL SULFONANILIDE HERBICIDES” (FMC Corporation, priority 2020, published 2023).

What was measured:
Assay type in all cases: in vivo
[1] = tested on: Foxtail, Giant (giant foxtail, Setaria faberi); assay: Test A1 preemergence, Foxtail, Giant
Procedure, shortened: (§1)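 Herbicidal response was scored on plants treated either preemergence, by directed spray onto soil of a loam–sand blend after sowing, or postemergence on potted plants at the one- to two-leaf stage, 2–10 cm high. Test chemicals were carried in a non-phytotoxic solvent mix with surfactant.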

kochia (Bassia scoparia) = assay: Test A1 preemergence, kochia
Procedure, shortened: as §1

[2] = tested on: Ryegrass, Italian (Italian ryegrass, Lolium multiflorum); assay: Test A1 preemergence, Ryegrass, Italian
Procedure, shortened: as §1

[3] = tested on: wheat (Triticum aestivum); assay: Test A1 preemergence, wheat
Procedure, shortened: as §1

corn (Zea mays) = assay: Test A1 postemergence, corn; conditions: Postemergence
Procedure, shortened: as §1

[4] = tested on: Foxtail, Giant (giant foxtail, Setaria faberi); assay: Test A1 postemergence, Foxtail, Giant; conditions: for Plant response rating, Foxtail, Giant: Postemergence
Procedure, shortened: (§2)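 Pre: seeds in loam/sand blend, directed soil spray. Post: potted plants, same soil, 2–10 cm, 1–2 leaf stage. Chemicals in non-phytotoxic solvent + surfactant for both.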

soybean (Glycine max) = assay: Test A1 postemergence, soybean; conditions: for Plant response rating, Soybean: Postemergence
Procedure, shortened: as §2

[5] = tested on: horseweed (Erigeron canadensis); assay: Test A1 postemergence, horseweed; conditions: for Plant response rating, Horseweed: Postemergence
Procedure, shortened: as §2

rice (Oryza sativa) = assay: Test B1 flooded paddy test, rice; conditions: 250 g ai/ha, Flood, applied to paddy water, 2-leaf stage, visually evaluated after 10 to 14 days
Source text: A dash (-) response means no test result.

[6] = 31 g ai/ha, 0 to 100 scale (0 no effect, 100 complete control)
[7] = 125 g ai/ha, 0 to 100 scale, 0 no effect, 100 complete control
[8] = 31 g ai/ha, 0 to 100 scale (0 no effect, 100 complete control), 10 days
[9] = 31 g ai/ha, postemergence, 0 to 100 scale (0 no effect, 100 complete control)

SMILES | Plant response rating, Foxtail, Giant [1, 6] | Plant response rating, Foxtail, Giant [1, 7] | Plant response rating, Kochia (kochia (Bassia scoparia); [6]) | Plant response rating, Kochia (kochia (Bassia scoparia); [7]) | Plant response rating, Ryegrass, Italian [2, 6] | Plant response rating, Ryegrass, Italian [2, 7] | Plant response rating, Wheat [3, 6] | Plant response rating, Wheat [3, 7] | Plant response rating, Corn (corn (Zea mays); [8]) | Plant response rating, Corn (corn (Zea mays); 125 g ai/ha, 0 to 100 scale) | Plant response rating, Foxtail, Giant [4, 8] | Plant response rating, Foxtail, Giant ([4]; 125 g ai/ha, 0 to 100 scale) | Plant response rating, Soybean (soybean (Glycine max); [8]) | Plant response rating, Soybean (soybean (Glycine max); 125 g ai/ha, 0 to 100 scale) | Plant response rating, Horseweed [5, 8] | Plant response rating, Horseweed ([5]; 125 g ai/ha, 0 to 100 scale) | Plant response rating, Rice (0 to 100 scale, 0 is no effect, 100 is complete control) (rice (Oryza sativa)) | Foxtail, Giant plant response rating [4, 9] | Soybean plant response rating (soybean (Glycine max); [9]) | Horseweed plant response rating [5, 9]
Cc1c(NS(=O)(=O)C(F)(F)F)cc(C(=O)N2CCC(F)CC2)c(C)c1C [Compound 358] | 80 | 100 | 20 | 30 | 0 | 30 | 0 | 30 | 0 | 0 | 0 | 40 | 50 | 70 | 60 | 70 | 10 | – | – | –
Cc1c(C(=O)N2CCC(Cl)CC2)cc(N(COC(=O)C(C)(C)C)S(=O)(=O)C(F)(F)F)c(C)c1C [Compound 359] | 0 | 90 | 0 | 0 | 0 | 0 | 0 | 0 | 0 | 0 | 0 | 60 | 50 | 60 | 50 | 80 | 15 | – | – | –
Cc1c(C(=O)N2CCC(F)(F)CC2)cc(N(COC(=O)C(C)(C)C)S(=O)(=O)C(F)(F)F)c(C)c1C [Compound 360] | 0 | 40 | 0 | 30 | 0 | 30 | 0 | 10 | 0 | 0 | 0 | 0 | 20 | 40 | 10 | 70 | 25 | – | – | –
Cc1cc(C)c(N(COC(=O)C(C)(C)C)S(=O)(=O)C(F)(F)F)cc1C(=O)N1CCOCC1 [Compound 362] | 20 | 90 | 50 | 90 | 30 | 70 | 20 | 70 | 0 | 40 | 20 | 90 | 50 | 70 | 90 | 90 | 10 | – | – | –
CCOC(=O)N(c1cc(C(=O)N2CCOCC2)c(C)cc1C)S(=O)(=O)C(F)(F)F [Compound 363] | 90 | 100 | 80 | 100 | 80 | 100 | 40 | 90 | 30 | 60 | 30 | 90 | 60 | 60 | 80 | 90 | 25 | – | – | –
Cc1cc(C)c(N(COC(=O)C(C)(C)C)S(=O)(=O)C(F)(F)F)cc1C(=O)N1CCC(c2ccccc2)CC1 [Compound 364] | 0 | 0 | 0 | 0 | 0 | 0 | 0 | 0 | 0 | 0 | 0 | 20 | 0 | 10 | 0 | 0 | 0 | – | – | –
CCOC(=O)N(c1cc(C(=O)N2CCC(c3ccccc3)CC2)c(C)cc1C)S(=O)(=O)C(F)(F)F [Compound 365] | 0 | 30 | 0 | 0 | 0 | 30 | 0 | 0 | 0 | 0 | 0 | 0 | 0 | 60 | 10 | 20 | 15 | – | – | –
CCC1CC(c2cc(N(COC(=O)C(C)(C)C)S(=O)(=O)C(F)(F)F)c(C)cc2C)=NO1 (stereo not shown) [Compound 376] | 0 | 30 | 0 | 80 | 0 | 30 | 0 | 20 | 0 | 0 | – | 20 | – | 100 | – | 0 | 20 | 0 | 20 | 0
